Measured values reported in patent publication US20080275248A1, “NOVEL 4BETA-AMINO PODOP[…] AS POTENTIAL ANTICANCER AGENTS AND A PROCESS FOR THE PREPARATION THEREOF” (priority 2007, published 2008).
≈ marks a conversion by molar mass, not a printed value. Where two headings read alike, the source gives them in different places.

Experiments:
Type in all cases: cell-based, human
[1] = test system: Colo205; assay: SRB cytotoxicity assay, colon Colo205; settings: for IC50: Homo sapiens, read-out: Activity status in terms of IC50 values, Colon Colo205
Description: (§1) Single cell suspension of the tumor cells grown in tissue culture were made, cells counted and cell count adjusted to 1×10 ^5 to 5×10^5 cells/ml. Ninety six (96) well plates were seeded with this cell suspension, each well receiving 100 μl of it. The plate was then be incubated at 37° C. temperature in CO2 incubator for 24 hours. Drugs were added at appropriate concentrations after 24-hour incubation followed by further incubation for 48 hours. Experiment was terminated by gently layering the cells in the wells with 30% TCA and plates were kept in refrigerator for 1 hour following which they were washed thoroughly with tap water, dried attained with 0.4% SRB in 1% acetic aid and finally, the bound SRB eluted with 10 mM tris. Absorbance was read at 540 nm, in the microtitre-plate reader. Optical density of drug-treated cells was compared with that of control cells and cell inhibition was calculated as percent values. Each compound was tested at 10, 20, 40 and 80 μg/ml in triplicate on human malignant cell lines.

[2] = test system: DU145; assay: SRB cytotoxicity assay, prostate DU145; settings: for IC50: Homo sapiens, read-out: Activity status in terms of IC50 values, Prostate DU145
Description: as §1

[3] = test system: PC3; assay: SRB cytotoxicity assay, prostate PC3; settings: for IC50: Homo sapiens, read-out: Activity status in terms of IC50 values, Prostate PC3
Description: as §1

[4] = test system: Hop62; assay: SRB cytotoxicity assay, lung Hop62; settings: for IC50: Homo sapiens, read-out: Activity status in terms of IC50 values, Lung Hop62
Description: as §1

[5] = test system: MCF7; assay: SRB cytotoxicity assay, breast MCF7; settings: for IC50: Homo sapiens, read-out: Activity status in terms of IC50 values, Breast MCF7
Description: as §1

[6] = test system: Zr-75-1; assay: SRB cytotoxicity assay, breast Zr-75-1; settings: for IC50: Homo sapiens, read-out: Activity status in terms of IC50 values, Breast Zr-75-1
Description: as §1

[7] = test system: SiHa; assay: SRB cytotoxicity assay, cervix SiHa; settings: for IC50: Homo sapiens, read-out: Activity status in terms of IC50 values, Cervix SiHa
Description: as §1

[8] = test system: HT1080; assay: SRB cytotoxicity assay, oral HT1080; settings: for IC50: Homo sapiens, read-out: Activity status in terms of IC50 values, Oral HT1080
Description: as §1

[9] = test system: DWD; assay: SRB cytotoxicity assay, oral DWD; settings: for IC50: Homo sapiens, read-out: Activity status in terms of IC50 values, Oral DWD
Description: as §1

[10] = MCF7 breast cancer cells, SRB assay, 48 hours drug incubation
[11] = Zr-75-1 breast cancer cells, SRB assay, 48 hours drug incubation
[12] = SiHa cervix cancer cells, SRB assay, 48 hours drug incubation
[13] = DWD oral cancer cells, SRB assay, 48 hours drug incubation
[14] = Colo205 colon cancer cells, SRB assay, 48 hours drug incubation
[15] = DU145 prostate cancer cells, SRB assay, 48 hours drug incubation
[16] = PC3 prostate cancer cells, SRB assay, 48 hours drug incubation
[17] = Hop62 lung cancer cells, SRB assay, 48 hours drug incubation
[18] = HT1080 oral cancer cells, SRB assay, 48 hours drug incubation

COc1cccc2c1C(=O)c1c(O)c3c(c(O)c1C2=O)C[C@@](O)(C(=O)CO)C[C@@H]3O[C@H]1C[C@H](N)[C@H](O)[C@H](C)O1 [ADR, Adriamycin, reference compound]
IC50 ([1]; COLO 205, Colo205 colon cancer cells, SRB assay, 48 hours drug incubation): 5 µg/mL (≈ 9.2 µM) | IC50 ([2]; DU-145, DU145 prostate cancer cells, SRB assay, 48 hours drug incubation): 6 µg/mL (≈ 11 µM) | IC50 ([3]; PC-3, PC3 prostate cancer cells, SRB assay, 48 hours drug incubation): 5 µg/mL (≈ 9.2 µM) | IC50 ([4]; HOP-62, Hop62 lung cancer cells, SRB assay, 48 hours drug incubation): 5 µg/mL (≈ 9.2 µM) | IC50 [5, 10]: 5 µg/mL (≈ 9.2 µM) | IC50 [6, 11]: 5 µg/mL (≈ 9.2 µM) | IC50 [7, 12]: 5 µg/mL (≈ 9.2 µM) | IC50 ([8]; HT-1080, HT1080 oral cancer cells, SRB assay, 48 hours drug incubation): 4 µg/mL (≈ 7.36 µM) | IC50 [9, 13]: 2 µg/mL (≈ 3.68 µM)

COc1cc(C2c3cc4c(cc3C(Nc3ccc(-c5nc6ccccc6s5)c(Cl)c3)C3COC(=O)C23)OCO4)cc(OC)c1O (stereo not drawn) [Compound 4d, 4′-O-Demethyl-4β-[4″-(1″,3″-benzothiazole-2″-yl)-3″-chloroanilino]-4-desoxypodophyllotoxin]
Activity status in terms of IC50 values, Colon Colo205 [1, 14]: 7 µg/mL | Activity status in terms of IC50 values, Prostate DU145 [2, 15]: >80 µg/mL | Activity status in terms of IC50 values, Prostate PC3 [3, 16]: >80 µg/mL | Activity status in terms of IC50 values, Lung Hop62 [4, 17]: 60 µg/mL | Activity status in terms of IC50 values, Breast MCF7 [5, 10]: >80 µg/mL | Activity status in terms of IC50 values, Breast Zr-75-1 [6, 11]: >80 µg/mL | Activity status in terms of IC50 values, Cervix SiHa [7, 12]: >80 µg/mL | Activity status in terms of IC50 values, Oral HT1080 [8, 18]: 9 µg/mL | Activity status in terms of IC50 values, Oral DWD [9, 13]: 7 µg/mL

COc1cc(C2c3cc4c(cc3C(Nc3ccc(-c5nc6ccccc6s5)cc3)C3COC(=O)C23)OCO4)cc(OC)c1O (stereo not drawn) [Compound 4b, 4′-O-Demethyl-4β-[4″-(1″,3″-benzothiazole-2″-yl)anilino]-4-desoxypodophyllotoxin]
Activity status in terms of IC50 values, Colon Colo205 [1, 14]: 8 µg/mL | Activity status in terms of IC50 values, Prostate DU145 [2, 15]: 13 µg/mL | Activity status in terms of IC50 values, Prostate PC3 [3, 16]: >80 µg/mL | Activity status in terms of IC50 values, Lung Hop62 [4, 17]: 8 µg/mL | Activity status in terms of IC50 values, Breast MCF7 [5, 10]: >80 µg/mL | Activity status in terms of IC50 values, Breast Zr-75-1 [6, 11]: >80 µg/mL | Activity status in terms of IC50 values, Cervix SiHa [7, 12]: >80 µg/mL | Activity status in terms of IC50 values, Oral HT1080 [8, 18]: >80 µg/mL | Activity status in terms of IC50 values, Oral DWD [9, 13]: 6 µg/mL

COc1cc(C2c3cc4c(cc3C(Nc3ccc(-c5nc6ccc(F)cc6s5)cc3)C3COC(=O)C23)OCO4)cc(OC)c1O (stereo not drawn) [Compound 4h, 4′-O-Demethyl-4β-[4″-(6″-fluoro-1″,3″-benzothiazole-2″-yl)anilino]-4-desoxypodophyllotoxin]
Activity status in terms of IC50 values, Colon Colo205 [1, 14]: 8 µg/mL | Activity status in terms of IC50 values, Prostate DU145 [2, 15]: >80 µg/mL | Activity status in terms of IC50 values, Prostate PC3 [3, 16]: >80 µg/mL | Activity status in terms of IC50 values, Lung Hop62 [4, 17]: 10 µg/mL | Activity status in terms of IC50 values, Breast MCF7 [5, 10]: >80 µg/mL | Activity status in terms of IC50 values, Breast Zr-75-1 [6, 11]: >80 µg/mL | Activity status in terms of IC50 values, Cervix SiHa [7, 12]: >80 µg/mL | Activity status in terms of IC50 values, Oral HT1080 [8, 18]: >80 µg/mL | Activity status in terms of IC50 values, Oral DWD [9, 13]: 9 µg/mL

COc1cc(C2c3cc4c(cc3C(Nc3ccc(-c5nc6ccccc6s5)c(Cl)c3)C3COC(=O)C23)OCO4)cc(OC)c1OC (stereo not drawn) [Compound 4c, 4β-[4″-(1″,3″-Benzothiazole-2″-yl)-3″-chloroanilino]-4-desoxypodophyllotoxin]
Activity status in terms of IC50 values, Colon Colo205 [1, 14]: 7 µg/mL | Activity status in terms of IC50 values, Prostate DU145 [2, 15]: >80 µg/mL | Activity status in terms of IC50 values, Prostate PC3 [3, 16]: >80 µg/mL | Activity status in terms of IC50 values, Lung Hop62 [4, 17]: 15 µg/mL | Activity status in terms of IC50 values, Breast MCF7 [5, 10]: >80 µg/mL | Activity status in terms of IC50 values, Breast Zr-75-1 [6, 11]: >80 µg/mL | Activity status in terms of IC50 values, Cervix SiHa [7, 12]: >80 µg/mL | Activity status in terms of IC50 values, Oral HT1080 [8, 18]: 9 µg/mL | Activity status in terms of IC50 values, Oral DWD [9, 13]: 5 µg/mL

COc1cc(C2c3cc4c(cc3C(Nc3ccc(-c5nc6ccccc6s5)cc3)C3COC(=O)C23)OCO4)cc(OC)c1OC (stereo not drawn) [Compound 4a, 4β-[4″-(1″,3″-benzothiazole-2″-yl)anilino]-4-desoxypodophyllotoxin]
Activity status in terms of IC50 values, Colon Colo205 [1, 14]: 8 µg/mL | Activity status in terms of IC50 values, Prostate DU145 [2, 15]: >80 µg/mL | Activity status in terms of IC50 values, Prostate PC3 [3, 16]: >80 µg/mL | Activity status in terms of IC50 values, Lung Hop62 [4, 17]: >80 µg/mL | Activity status in terms of IC50 values, Breast MCF7 [5, 10]: >80 µg/mL | Activity status in terms of IC50 values, Breast Zr-75-1 [6, 11]: >80 µg/mL | Activity status in terms of IC50 values, Cervix SiHa [7, 12]: >80 µg/mL | Activity status in terms of IC50 values, Oral HT1080 [8, 18]: 8 µg/mL | Activity status in terms of IC50 values, Oral DWD [9, 13]: 22 µg/mL

COc1cc(C2c3cc4c(cc3C(Nc3ccc(-c5nc6ccc(F)cc6s5)cc3)C3COC(=O)C23)OCO4)cc(OC)c1OC (stereo not drawn) [Compound 4g, 4β-[4″-(6″-Fluoro-1″,3″-benzothiazole-2″-yl)anilino]-4-desoxypodophyllotoxin]
Activity status in terms of IC50 values, Colon Colo205 [1, 14]: 7 µg/mL | Activity status in terms of IC50 values, Prostate DU145 [2, 15]: >80 µg/mL | Activity status in terms of IC50 values, Prostate PC3 [3, 16]: >80 µg/mL | Activity status in terms of IC50 values, Lung Hop62 [4, 17]: 30 µg/mL | Activity status in terms of IC50 values, Breast MCF7 [5, 10]: >80 µg/mL | Activity status in terms of IC50 values, Breast Zr-75-1 [6, 11]: >80 µg/mL | Activity status in terms of IC50 values, Cervix SiHa [7, 12]: >80 µg/mL | Activity status in terms of IC50 values, Oral HT1080 [8, 18]: 9 µg/mL | Activity status in terms of IC50 values, Oral DWD [9, 13]: 5 µg/mL

COc1cc([C@@H]2c3cc4c(cc3[C@H](O)[C@H]3COC(=O)[C@H]23)OCO4)cc(OC)c1OC [Compound 1, Podophyllotoxin, reference compound]
IC50 ([1]; COLO 205, 48 h): 5 µg/mL (≈ 12.1 µM) | IC50 ([2]; DU-145, 48 h): 2 µg/mL (≈ 4.83 µM) | IC50 ([3]; PC-3, 48 h): 8 µg/mL (≈ 19.3 µM) | IC50 ([4]; HOP-62, 48 h): 13 µg/mL (≈ 31.4 µM) | IC50 ([5]; MCF7, 48 h): 3 µg/mL (≈ 7.24 µM) | IC50 ([6]; ZR-75-1, 48 h): 7 µg/mL (≈ 16.9 µM) | IC50 ([7]; SiHa, 48 h): 23 µg/mL (≈ 55.5 µM) | IC50 ([8]; HT-1080, 48 h): 8 µg/mL (≈ 19.3 µM) | IC50 ([9]; DWD, 48 h): 6 µg/mL (≈ 14.5 µM)
